HELM strings list units from the 5' end as sugar, base in round brackets, then linkage (d deoxyribose, r ribose, m 2'-O-methyl, p phosphodiester). Strings are as the collection lists them, not checked against the first reports. ss, as = sense and antisense strand; [s4r] = 4'-thioribose
Conditions: siRNA
For “RNA1{[s4r](A)p.[s4r](A)p.[s4r](A)p.[s4r](C)p.r(A)p.r(U)p.r(G)p.r(C)p.r(A)p.r(G)p.r(A)p.r(A)p.r(A)p.r(A)p.r(U)p.[s4r](G)p.[s4r](C)p.[s4r](U)p.[s4r](G)p.r(T)p.r(T)}|RNA2{r(C)p.r(A)p.r(G)p.r(C)p.r(A)p.r(U)p.r(U)p.r(U)p.r(U)p.r(C)p.r(U)p.r(G)p.r(C)p.r(A)p.r(U)p.[s4r](G)p.[s4r](U)p.[s4r](U)p.[s4r](U)p.r(T)p.r(T)}$$$RNA1{StrandType:ss}|RNA2{StrandType:as}$”, the target mRNA knockdown was 91%. Substance “RNA1{[s4r](A)p.[s4r](A)p.[s4r](A)p.[s4r](C)p.r(A)p.r(U)p.r(G)p.r(C)p.r(A)p.r(G)p.r(A)p.r(A)p.r(A)p.r(A)p.r(U)p.[s4r](G)p.[s4r](C)p.[s4r](U)p.[s4r](G)p.r(T)p.r(T)}|RNA2{r(C)p.r(A)p.r(G)p.r(C)p.r(A)p.r(U)p.r(U)p.r(U)p.r(U)p.r(C)p.r(U)p.r(G)p.r(C)p.r(A)p.r(U)p.r(G)p.r(U)p.[s4r](U)p.[s4r](U)p.r(T)p.r(T)}$$$RNA1{StrandType:ss}|RNA2{StrandType:as}$” has a target mRNA knockdown of 85.5%. For “RNA1{[s4r](A)p.[s4r](A)p.[s4r](A)p.[s4r](C)p.r(A)p.r(U)p.r(G)p.r(C)p.r(A)p.r(G)p.r(A)p.r(A)p.r(A)p.r(A)p.r(U)p.[s4r](G)p.[s4r](C)p.[s4r](U)p.[s4r](G)p.r(T)p.r(T)}|RNA2{r(C)p.r(A)p.r(G)p.r(C)p.r(A)p.r(U)p.r(U)p.r(U)p.r(U)p.r(C)p.r(U)p.r(G)p.r(C)p.r(A)p.r(U)p.r(G)p.r(U)p.r(U)p.r(U)p.r(T)p.r(T)}$$$RNA1{StrandType:ss}|RNA2{StrandType:as}$”, the target mRNA knockdown was 79.1%. “RNA1{[s4r](A)p.[s4r](A)p.[s4r](A)p.[s4r](C)p.r(A)p.r(U)p.r(G)p.r(C)p.r(A)p.r(G)p.r(A)p.r(A)p.r(A)p.r(A)p.r(U)p.r(G)p.r(C)p.r(U)p.r(G)p.r(T)p.r(T)}|RNA2{[s4r](C)p.[s4r](A)p.r(G)p.r(C)p.r(A)p.r(U)p.r(U)p.r(U)p.r(U)p.r(C)p.r(U)p.r(G)p.r(C)p.r(A)p.r(U)p.r(G)p.r(U)p.[s4r](U)p.[s4r](U)p.r(T)p.r(T)}$$$RNA1{StrandType:ss}|RNA2{StrandType:as}$” gave a target mRNA knockdown of 60.2%. Work on “RNA1{[s4r](A)p.[s4r](A)p.[s4r](A)p.[s4r](C)p.r(A)p.r(U)p.r(G)p.r(C)p.r(A)p.r(G)p.r(A)p.r(A)p.r(A)p.r(A)p.r(U)p.r(G)p.r(C)p.r(U)p.r(G)p.r(T)p.r(T)}|RNA2{r(C)p.r(A)p.r(G)p.r(C)p.r(A)p.r(U)p.r(U)p.r(U)p.r(U)p.r(C)p.r(U)p.r(G)p.r(C)p.r(A)p.r(U)p.[s4r](G)p.[s4r](U)p.[s4r](U)p.[s4r](U)p.r(T)p.r(T)}$$$RNA1{StrandType:ss}|RNA2{StrandType:as}$” yielded a target mRNA knockdown of 80.7%. For “RNA1{[s4r](A)p.[s4r](A)p.[s4r](A)p.[s4r](C)p.r(A)p.r(U)p.r(G)p.r(C)p.r(A)p.r(G)p.r(A)p.r(A)p.r(A)p.r(A)p.r(U)p.r(G)p.r(C)p.r(U)p.r(G)p.r(T)p.r(T)}|RNA2{r(C)p.r(A)p.r(G)p.r(C)p.r(A)p.r(U)p.r(U)p.r(U)p.r(U)p.r(C)p.r(U)p.r(G)p.r(C)p.r(A)p.r(U)p.r(G)p.r(U)p.[s4r](U)p.[s4r](U)p.r(T)p.r(T)}$$$RNA1{StrandType:ss}|RNA2{StrandType:as}$”, the target mRNA knockdown was 76.5%. With “RNA1{[s4r](A)p.[s4r](A)p.[s4r](A)p.[s4r](C)p.r(A)p.r(U)p.r(G)p.r(C)p.r(A)p.r(G)p.r(A)p.r(A)p.r(A)p.r(A)p.r(U)p.r(G)p.r(C)p.r(U)p.r(G)p.r(T)p.r(T)}|RNA2{r(C)p.r(A)p.r(G)p.r(C)p.r(A)p.r(U)p.r(U)p.r(U)p.r(U)p.r(C)p.r(U)p.r(G)p.r(C)p.r(A)p.r(U)p.r(G)p.r(U)p.r(U)p.r(U)p.r(T)p.r(T)}$$$RNA1{StrandType:ss}|RNA2{StrandType:as}$” the target mRNA knockdown was 70.4%. “RNA1{[s4r](A)p.[s4r](A)p.r(A)p.r(C)p.r(A)p.r(U)p.r(G)p.r(C)p.r(A)p.r(G)p.r(A)p.r(A)p.r(A)p.r(A)p.r(U)p.r(G)p.r(C)p.r(U)p.r(G)p.r(T)p.r(T)}|RNA2{[s4r](C)p.[s4r](A)p.r(G)p.r(C)p.r(A)p.r(U)p.r(U)p.r(U)p.r(U)p.r(C)p.r(U)p.r(G)p.r(C)p.r(A)p.r(U)p.r(G)p.r(U)p.[s4r](U)p.[s4r](U)p.r(T)p.r(T)}$$$RNA1{StrandType:ss}|RNA2{StrandType:as}$” gave a target mRNA knockdown of 44.8%. Work on “RNA1{[s4r](A)p.[s4r](A)p.r(A)p.r(C)p.r(A)p.r(U)p.r(G)p.r(C)p.r(A)p.r(G)p.r(A)p.r(A)p.r(A)p.r(A)p.r(U)p.r(G)p.r(C)p.r(U)p.r(G)p.r(T)p.r(T)}|RNA2{r(C)p.r(A)p.r(G)p.r(C)p.r(A)p.r(U)p.r(U)p.r(U)p.r(U)p.r(C)p.r(U)p.r(G)p.r(C)p.r(A)p.r(U)p.[s4r](G)p.[s4r](U)p.[s4r](U)p.[s4r](U)p.r(T)p.r(T)}$$$RNA1{StrandType:ss}|RNA2{StrandType:as}$” yielded a target mRNA knockdown of 70.9%. “RNA1{[s4r](A)p.[s4r](A)p.r(A)p.r(C)p.r(A)p.r(U)p.r(G)p.r(C)p.r(A)p.r(G)p.r(A)p.r(A)p.r(A)p.r(A)p.r(U)p.r(G)p.r(C)p.r(U)p.r(G)p.r(T)p.r(T)}|RNA2{r(C)p.r(A)p.r(G)p.r(C)p.r(A)p.r(U)p.r(U)p.r(U)p.r(U)p.r(C)p.r(U)p.r(G)p.r(C)p.r(A)p.r(U)p.r(G)p.r(U)p.[s4r](U)p.[s4r](U)p.r(T)p.r(T)}$$$RNA1{StrandType:ss}|RNA2{StrandType:as}$” showed a target mRNA knockdown of 72.4%. For “RNA1{[s4r](A)p.[s4r](A)p.r(A)p.r(C)p.r(A)p.r(U)p.r(G)p.r(C)p.r(A)p.r(G)p.r(A)p.r(A)p.r(A)p.r(A)p.r(U)p.r(G)p.r(C)p.r(U)p.r(G)p.r(T)p.r(T)}|RNA2{r(C)p.r(A)p.r(G)p.r(C)p.r(A)p.r(U)p.r(U)p.r(U)p.r(U)p.r(C)p.r(U)p.r(G)p.r(C)p.r(A)p.r(U)p.r(G)p.r(U)p.r(U)p.r(U)p.r(T)p.r(T)}$$$RNA1{StrandType:ss}|RNA2{StrandType:as}$”, the target mRNA knockdown was 69.5%. Work on “RNA1{[s4r](C)p.[s4r](G)p.[s4r](U)p.[s4r](A)p.[s4r](C)p.[s4r](G)p.[s4r](C)p.[s4r](G)p.[s4r](G)p.[s4r](A)p.[s4r](A)p.[s4r](U)p.[s4r](A)p.[s4r](C)p.[s4r](U)p.[s4r](U)p.[s4r](C)p.[s4r](G)p.[s4r](A)p.r(T)p.r(T)}|RNA2{r(U)p.r(C)p.r(G)p.r(A)p.r(A)p.r(G)p.r(U)p.r(A)p.r(U)p.r(U)p.r(C)p.r(C)p.r(G)p.r(C)p.r(G)p.r(U)p.r(A)p.r(C)p.r(G)p.r(T)p.r(T)}$$$RNA1{StrandType:ss}|RNA2{StrandType:as}$” yielded a target mRNA knockdown of 60.3%. For “RNA1{[s4r](C)p.[s4r](G)p.[s4r](U)p.[s4r](A)p.[s4r](C)p.[s4r](G)p.r(C)p.r(G)p.r(G)p.r(A)p.r(A)p.r(U)p.r(A)p.[s4r](C)p.[s4r](U)p.[s4r](U)p.[s4r](C)p.[s4r](G)p.[s4r](A)p.r(T)p.r(T)}|RNA2{[s4r](U)p.[s4r](C)p.[s4r](G)p.[s4r](A)p.[s4r](A)p.[s4r](G)p.r(U)p.r(A)p.r(U)p.r(U)p.r(C)p.r(C)p.r(G)p.[s4r](C)p.[s4r](G)p.[s4r](U)p.[s4r](A)p.[s4r](C)p.[s4r](G)p.r(T)p.r(T)}$$$RNA1{StrandType:ss}|RNA2{StrandType:as}$”, the target mRNA knockdown was 0%. In the case of “RNA1{[s4r](C)p.[s4r](G)p.[s4r](U)p.[s4r](A)p.[s4r](C)p.[s4r](G)p.r(C)p.r(G)p.r(G)p.r(A)p.r(A)p.r(U)p.r(A)p.[s4r](C)p.[s4r](U)p.[s4r](U)p.[s4r](C)p.[s4r](G)p.[s4r](A)p.r(T)p.r(T)}|RNA2{[s4r](U)p.[s4r](C)p.r(G)p.r(A)p.r(A)p.r(G)p.r(U)p.r(A)p.r(U)p.r(U)p.r(C)p.r(C)p.r(G)p.r(C)p.r(G)p.r(U)p.r(A)p.[s4r](C)p.[s4r](G)p.r(T)p.r(T)}$$$RNA1{StrandType:ss}|RNA2{StrandType:as}$”, the target mRNA knockdown is reported as 28.6%. Work on “RNA1{[s4r](C)p.[s4r](G)p.[s4r](U)p.[s4r](A)p.[s4r](C)p.[s4r](G)p.r(C)p.r(G)p.r(G)p.r(A)p.r(A)p.r(U)p.r(A)p.[s4r](C)p.[s4r](U)p.[s4r](U)p.[s4r](C)p.[s4r](G)p.[s4r](A)p.r(T)p.r(T)}|RNA2{r(G)p.r(C)p.r(G)p.r(A)p.r(A)p.r(G)p.r(U)p.r(A)p.r(U)p.r(U)p.r(C)p.r(C)p.r(G)p.r(C)p.r(G)p.r(U)p.r(A)p.[s4r](C)p.[s4r](G)p.r(T)p.r(T)}$$$RNA1{StrandType:ss}|RNA2{StrandType:as}$” yielded a target mRNA knockdown of 74.2%. In the case of “RNA1{[s4r](C)p.[s4r](G)p.[s4r](U)p.[s4r](A)p.[s4r](C)p.[s4r](G)p.r(C)p.r(G)p.r(G)p.r(A)p.r(A)p.r(U)p.r(A)p.[s4r](C)p.[s4r](U)p.[s4r](U)p.[s4r](C)p.[s4r](G)p.[s4r](A)p.r(T)p.r(T)}|RNA2{r(U)p.r(C)p.r(G)p.r(A)p.r(A)p.r(G)p.r(U)p.r(A)p.r(U)p.r(U)p.r(C)p.r(C)p.r(G)p.r(C)p.r(G)p.[s4r](U)p.[s4r](A)p.[s4r](C)p.[s4r](G)p.r(T)p.r(T)}$$$RNA1{StrandType:ss}|RNA2{StrandType:as}$”, the target mRNA knockdown is reported as 44.4%. “RNA1{[s4r](C)p.[s4r](G)p.[s4r](U)p.[s4r](A)p.[s4r](C)p.[s4r](G)p.r(C)p.r(G)p.r(G)p.r(A)p.r(A)p.r(U)p.r(A)p.[s4r](C)p.[s4r](U)p.[s4r](U)p.[s4r](C)p.[s4r](G)p.[s4r](A)p.r(T)p.r(T)}|RNA2{r(U)p.r(C)p.r(G)p.r(A)p.r(A)p.r(G)p.r(U)p.r(A)p.r(U)p.r(U)p.r(C)p.r(C)p.r(G)p.r(C)p.r(G)p.r(U)p.r(A)p.r(C)p.r(G)p.r(T)p.r(T)}$$$RNA1{StrandType:ss}|RNA2{StrandType:as}$” showed a target mRNA knockdown of 91.5%. With “RNA1{[s4r](C)p.[s4r](G)p.[s4r](U)p.[s4r](A)p.[s4r](C)p.[s4r](G)p.r(C)p.r(G)p.r(G)p.r(A)p.r(A)p.r(U)p.r(A)p.r(C)p.r(U)p.r(U)p.r(C)p.r(G)p.r(A)p.r(T)p.r(T)}|RNA2{r(U)p.r(C)p.r(G)p.r(A)p.r(A)p.r(G)p.r(U)p.r(A)p.r(U)p.r(U)p.r(C)p.r(C)p.r(G)p.[s4r](C)p.[s4r](G)p.[s4r](U)p.[s4r](A)p.[s4r](C)p.[s4r](G)p.r(T)p.r(T)}$$$RNA1{StrandType:ss}|RNA2{StrandType:as}$” the target mRNA knockdown was 47.8%.
Further: test system not given here.
